Where a name gives a salt, the structure may show the parent alone. Read-outs that look alike come from different tables or passages of the source.
What was measured:
Grollman rats = assay: action on the control of blood pressure in Grollman rats; assay type: in vivo, rat; settings: oral, 2 × 3 mg/kg
Experimental: (§1) The above results are confirmed by the results of an investigation of the action on the control of blood pressure. On oral administration of a dosage of 2 × 3 mg/kg of compound to Doca rats (Technique according to Green and co-workers, Am. J. Physiol, 1952, 170, p.94) and to Grollman rats (Techniques according to Grollman, Proc. Soc. Exp. Biol. Med., 1944, 57, p.102), the precent decrease of the systolic blood pressure with respect to its original value is noted.

Doca rats = assay: action on the control of blood pressure in Doca rats; assay type: in vivo, rat; settings: oral, 2 × 3 mg/kg
Experimental: as §1

[1] = acute toxicity investigation in mice; settings: mouse, in vivo
[2] = test system: uptake of ^3 H noradrenalin by the synaptosomes of a rat hypothalamus homogenate; assay: inhibition of the uptake of ^3 H noradrenalin by the synaptosomes of a rat hypothalamus homogenate; assay type: biochemical; settings: with respect to the control test
Text: The compounds of the formula (I) are capable of modifying the accumulation of noradrenalin and particularly to inhibit the uptake of ^3 H noradrenalin by the synaptosomes of a rat hypothalamus homogenate prepared according to Banerjee, Snyder and Mechoulam (J. Pharmacol. Exp. Ther., 194, 1, 74, 1975). This inhibition of the uptake of ^3 H noradrenaline is a known property of various compounds having an activity on the central nervous system and/or on the sympathetic nervous system, particularly a hypotensive effect (J. Glowinski and J. Axelrod, Effects of Drugs on the Disposition of ^3 H norepinephrine in the Rat Brain, Pharmacological Reviews, Vol. 18, n°1, Part I, 1966).
They are expressed as percent inhibition of the uptake with respect to the control test.

[3] = iv, read-out: LD50 (mg/kg) i.v.
[4] = po, read-out: LD50 (mg/kg) p.o.
[5] = 5 × 10^-4 M ultimate concentration
[6] = 5 × 10^-5 M ultimate concentration
[7] = 5 × 10^-6 M ultimate concentration

Row | SMILES | percent decrease of the systolic blood pressure with respect to its original value (Grollman rats) [%] | percent decrease of the systolic blood pressure with respect to its original value (Doca rats) [%] | LD50 [1, 3] [mg/kg] | LD50 [1, 4] [mg/kg] | inhibition % of the uptake of ^3 H noradrenalin [2, 5] [%] | inhibition % of the uptake of ^3 H noradrenalin [2, 6] [%] | inhibition % of the uptake of ^3 H noradrenalin [2, 7] [%]
1 | Cc1cc(NC(=N)NC(=N)N)no1 [Example 1, (5-methyl-isoxazol-3-yl)biguanide hydrochloride] | 20 | 25 | 115 | 700 |  |  | 
2 | CNC(=N)NC(=N)Nc1cc(C)on1 [Example 2, 1-methyl-5-(5-methyl-isoxazol-3-yl)biguanide] |  |  |  | 900 | 53.6 |  | 
3 | Cc1cc(NC(=N)NC(=N)N(C)C)no1 [Example 3] | 10 |  | 140 | 800 | 47.9 |  | 
4 | CCc1cc(NC(=N)NC(=N)N)no1 [Example 4] |  |  | 45 | 500 | 52.7 |  | 
5 | CCCCc1cc(NC(=N)NC(=N)N)no1 [Example 5] |  | 10 |  | 600 | 69.5 |  | 
6 | CC(C)c1cc(NC(=N)NC(=N)N)no1 [Example 6] |  |  |  | 200 |  | 54.6 | 
7 | Cc1cc(N(C)C(=N)NC(=N)N)no1 [Example 7] |  | 15 |  |  | 48.1 |  | 
8 | Cc1conc1NC(=N)NC(=N)N [Example 8] | 15 | 15 | 70 | 300 |  | 55 | 36
9 | N=C(N)NC(=N)Nc1ccon1 [Example 9] |  |  | > 150 | > 1000 | 68.6 |  | 
10 | Cc1onc(N(C)C(=N)NC(=N)N)c1C [Example 10] |  |  | 100 | > 500 | 19.5 |  | 
11 | Cc1conc1NC(=N)NC(=N)N(C)C [Example 11] |  | 15 | 40 | 300 | 60.1 |  | 
12 | CCCCNC(=N)NC(=N)Nc1cc(C)on1 [Example 13] |  |  | 35 | 250 | 63.1 |  | 
13 | CCc1conc1NC(=N)NC(=N)N [Example 14] |  |  |  | 500 |  | 61.8 | 46.5
14 | CCN(C(=N)NC(=N)N)c1cc(C)on1 [Example 16] |  |  |  | > 750 | 37.9 |  | 
15 | Cc1cc(NC(=N)NC(=N)N2CCN(C)CC2)no1 [Example 19] | 20 |  | 100 | 2000 | 53.8 |  | 
16 | Cc1cc(NC(=N)NC(=N)N2CCOCC2)no1 [Example 20] |  |  | 100 | 750 | 46.6 |  | 
17 | Cc1noc(NC(=N)NC(=N)N(C)C)c1C [Example 22] |  |  |  | 700 | 38.1 |  | 
